In patent publication US20230278972A1, “SUBSTITUTED HALOALKYL SULFONANILIDE HERBICIDES” (FMC Corporation, priority 2020, published 2023):

Legend:
Format in all cases: in vivo
[1] = test system: blackgrass (Alopecurus myosuroides); assay: Test A postemergence, blackgrass; conditions: Postemergence, 0 to 100 scale (0 no effect, 100 complete control); for Plant response rating, Blackgrass: 125 g ai/ha, visual injury approx. 10 days; for Blackgrass plant response rating: 500 g ai/ha, visual injury vs untreated controls after approx. 10 days
Summary of the method: (§1)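 Formulated with a surfactant in a non-phytotoxic solvent, compounds are applied to loam–sand pots, either to bare soil immediately after seeding (preemergence) or to seedlings of 2 to 10 cm bearing one to two leaves (postemergence).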

[2] = test system: pigweed (Amaranthus retroflexus); assay: Test A preemergence, pigweed; conditions: for Pigweed plant response rating: 125 g ai/ha, visual injury on 0 to 100 scale (0 no effect, 100 complete control), approximately 10 days; for Plant response rating, Pigweed: 500 g ai/ha, 0 to 100 scale (0 no effect, 100 complete control)
Summary of the method: (§2)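 Seeds are sown in loam mixed with sand and sprayed on the soil surface right after planting for the preemergence test. Postemergence pots are sprayed once seedlings reach 2 to 10 cm at the one- to two-leaf stage. The same surfactant-containing, non-phytotoxic solvent formulation serves both.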

[3] = test system: barnyardgrass (Echinochloa crus-galli); assay: Test A preemergence, barnyardgrass; conditions: Preemergence; for Barnyardgrass plant response rating: 125 g ai/ha, visual injury on 0 to 100 scale (0 no effect, 100 complete control), approximately 10 days; for Plant response rating, Barnyardgrass: 500 g ai/ha, 0 to 100 scale (0 no effect, 100 complete control)
Summary of the method: as §1

kochia (Bassia scoparia) [4] = assay: Test A postemergence, kochia; conditions: Postemergence, 0 to 100 scale (0 no effect, 100 complete control); for Plant response rating, Kochia: 125 g ai/ha, visual injury approx. 10 days; for Kochia plant response rating: 500 g ai/ha, visual injury vs untreated controls after approx. 10 days
Summary of the method: as §1

kochia (Bassia scoparia) [5] = assay: Test A preemergence, kochia; conditions: Preemergence; for Kochia plant response rating: 125 g ai/ha, visual injury on 0 to 100 scale (0 no effect, 100 complete control), approximately 10 days; for Plant response rating, Kochia: 500 g ai/ha, 0 to 100 scale (0 no effect, 100 complete control)
Summary of the method: as §1

[6] = test system: galium (catchweed bedstraw, Galium aparine); assay: Test A postemergence, galium; conditions: Postemergence, 0 to 100 scale (0 no effect, 100 complete control); for Plant response rating, Galium: 125 g ai/ha, visual injury approx. 10 days; for Galium plant response rating: 500 g ai/ha, visual injury vs untreated controls after approx. 10 days
Summary of the method: as §2

[7] = test system: ragweed (common ragweed, Ambrosia artemisiifolia); assay: Test A postemergence, ragweed; conditions: Postemergence, 0 to 100 scale (0 no effect, 100 complete control); for Plant response rating, Ragweed: 125 g ai/ha; for Ragweed plant response rating: 500 g ai/ha, visual injury vs untreated controls after approx. 10 days
Summary of the method: as §1

[8] = test system: ragweed (common ragweed, Ambrosia artemisiifolia); assay: Test A preemergence, ragweed; conditions: Preemergence; for Ragweed plant response rating: 125 g ai/ha, visual injury on 0 to 100 scale (0 no effect, 100 complete control), approximately 10 days; for Plant response rating, Ragweed: 500 g ai/ha, 0 to 100 scale (0 no effect, 100 complete control)
Summary of the method: as §1

[9] = test system: barnyardgrass (Echinochloa crus-galli); assay: Test A postemergence, barnyardgrass; conditions: Postemergence, 0 to 100 scale (0 no effect, 100 complete control); for Plant response rating, Barnyardgrass: 125 g ai/ha, visual injury approx. 10 days; for Barnyardgrass plant response rating: 500 g ai/ha, visual injury vs untreated controls after approx. 10 days
Summary of the method: as §2

corn (Zea mays) = assay: Test A postemergence, corn; conditions: Postemergence, 0 to 100 scale (0 no effect, 100 complete control); for Plant response rating, Corn: 125 g ai/ha, visual injury approx. 10 days; for Corn plant response rating: 500 g ai/ha, visual injury vs untreated controls after approx. 10 days
Summary of the method: as §1

[10] = test system: pigweed (Amaranthus retroflexus); assay: Test A postemergence, pigweed; conditions: Postemergence, 0 to 100 scale (0 no effect, 100 complete control); for Plant response rating, Pigweed: 125 g ai/ha; for Pigweed plant response rating: 500 g ai/ha, visual injury vs untreated controls after approx. 10 days
Summary of the method: as §1

[11] = test system: wheat (Triticum aestivum); assay: Test A postemergence, wheat; conditions: Postemergence, 0 to 100 scale (0 no effect, 100 complete control); for Plant response rating, Wheat: 125 g ai/ha; for Wheat plant response rating: 500 g ai/ha, visual injury vs untreated controls after approx. 10 days
Summary of the method: as §2

[12] = test system: Ryegrass, Italian (Italian ryegrass, Lolium multiflorum); assay: Test A postemergence, Ryegrass, Italian; conditions: Postemergence, 0 to 100 scale (0 no effect, 100 complete control); for Plant response rating, Ryegrass, Italian: 125 g ai/ha; for Ryegrass, Italian plant response rating: 500 g ai/ha, visual injury vs untreated controls after approx. 10 days
Summary of the method: as §1

[13] = test system: Foxtail, Giant (giant foxtail, Setaria faberi); assay: Test A preemergence, Foxtail, Giant; conditions: Preemergence; for Foxtail, Giant plant response rating: 125 g ai/ha, visual injury on 0 to 100 scale (0 no effect, 100 complete control), approximately 10 days; for Plant response rating, Foxtail, Giant: 500 g ai/ha, 0 to 100 scale (0 no effect, 100 complete control)
Summary of the method: as §1

[14] = test system: Ryegrass, Italian (Italian ryegrass, Lolium multiflorum); assay: Test A preemergence, Ryegrass, Italian; conditions: Preemergence; for Ryegrass, Italian plant response rating: 125 g ai/ha, visual injury on 0 to 100 scale (0 no effect, 100 complete control), approximately 10 days; for Plant response rating, Ryegrass, Italian: 500 g ai/ha, 0 to 100 scale (0 no effect, 100 complete control)
Summary of the method: as §1

[15] = test system: Foxtail, Giant (giant foxtail, Setaria faberi); assay: Test A postemergence, Foxtail, Giant; conditions: Postemergence, 0 to 100 scale (0 no effect, 100 complete control); for Plant response rating, Foxtail, Giant: 125 g ai/ha, visual injury approx. 10 days; for Foxtail, Giant plant response rating: 500 g ai/ha, visual injury vs untreated controls after approx. 10 days
Summary of the method: as §1

Row | SMILES | Plant response rating, Blackgrass [1] | Blackgrass plant response rating [1] | Pigweed plant response rating [2] | Plant response rating, Pigweed [2] | Barnyardgrass plant response rating [3] | Plant response rating, Barnyardgrass [3] | Plant response rating, Kochia (kochia (Bassia scoparia) [4]) | Kochia plant response rating (kochia (Bassia scoparia) [4]) | Kochia plant response rating (kochia (Bassia scoparia) [5]) | Plant response rating, Kochia (kochia (Bassia scoparia) [5]) | Plant response rating, Galium [6] | Galium plant response rating [6] | Ragweed plant response rating [7] | Ragweed plant response rating [8] | Plant response rating, Ragweed [8] | Plant response rating, Barnyardgrass [9] | Barnyardgrass plant response rating [9] | Plant response rating, Corn (corn (Zea mays)) | Corn plant response rating (corn (Zea mays)) | Pigweed plant response rating [10] | further results
1 | COC1CCN(C(=O)c2cc(NS(=O)(=O)C(F)(F)F)c(C)c(F)c2C)CC1 [Compound 110] | 0 | 0 | 80 | 100 | 40 | 90 | 10 | 50 | 80 | 100 | 70 | 80 | 90 | 80 | 90 | 20 | 80 | 0 | 10 | 100 | Plant response rating, Ragweed ([7]; visual injury approx. 10 days): 90; Plant response rating, Pigweed ([10]; visual injury approx. 10 days): 70; Plant response rating, Wheat ([11]; visual injury approx. 10 days): 20; Wheat plant response rating [11]: 60; Plant response rating, Ryegrass, Italian ([12]; visual injury approx. 10 days): 0; Ryegrass, Italian plant response rating [12]: 50; Foxtail, Giant plant response rating [13]: 90; Plant response rating, Foxtail, Giant [13]: 100; Ryegrass, Italian plant response rating [14]: 20; Plant response rating, Ryegrass, Italian [14]: 90; Plant response rating, Foxtail, Giant [15]: 0; Foxtail, Giant plant response rating [15]: 90
2 | Cc1cc(C)c(C2=NOC3(CCC4(CC3)OCCO4)C2)cc1NS(=O)(=O)C(F)(F)F [Compound 135] | 20 | 60 | 60 | 100 | 100 | 100 | 50 | 70 | 80 | 100 | 90 | 90 | 80 | 10 | 80 | 80 | 90 | 0 | 80 | 70 | Plant response rating, Ragweed [7]: 20; Plant response rating, Pigweed [10]: 80; Plant response rating, Wheat [11]: 0; Wheat plant response rating [11]: 70; Plant response rating, Ryegrass, Italian [12]: 0; Ryegrass, Italian plant response rating [12]: 80; Foxtail, Giant plant response rating [13]: 100; Plant response rating, Foxtail, Giant [13]: 100; Ryegrass, Italian plant response rating [14]: 100; Plant response rating, Ryegrass, Italian [14]: 100; Plant response rating, Foxtail, Giant [15]: 90; Foxtail, Giant plant response rating [15]: 90
3 | Cc1cc(C)c(N(S(=O)(=O)C(F)(F)F)S(=O)(=O)C(F)(F)F)cc1C1=NOC2(CCC3(CC2)OCCO3)C1 [Compound 136] | 10 | 20 | 20 | 70 | 90 | 100 | 30 | 40 | 80 | 90 | 70 | 90 | 50 | 50 | 80 | 20 | 80 | 0 | 30 | 90 | Plant response rating, Ragweed [7]: 60; Plant response rating, Pigweed [10]: 40; Plant response rating, Wheat [11]: 70; Wheat plant response rating [11]: 60; Plant response rating, Ryegrass, Italian [12]: 80; Ryegrass, Italian plant response rating [12]: 0; Foxtail, Giant plant response rating [13]: 100; Plant response rating, Foxtail, Giant [13]: 100; Ryegrass, Italian plant response rating [14]: 90; Plant response rating, Ryegrass, Italian [14]: 100; Plant response rating, Foxtail, Giant [15]: 0; Foxtail, Giant plant response rating [15]: 50
